Article PMC7342775 (European journal of medicinal chemistry, 2020)

Assays:
α1β3γ2 GABAAR [1] = conditions: cited from earlier work; for selectivity favoring the etomidate site / selectivity favoring the R-mTFD-MPAB sites: 4-substituted propofols
α1β3γ2L GABAARs [2] = biological target: T1, α1β3γ2L GABAARs (Homo sapiens, UniProt P14867+P18507+P28472); assay: Modulation of [3H]muscimol binding, native HEK cell membranes
α1β3γ2 GABAAR [3] = assay: Selectivity between etomidate and R-mTFD-MPAB sites; format: binding, human
α1β3γ2L GABAARs [4] = biological target: T1, α1β3γ2L GABAARs; assay: Two-microelectrode voltage-clamp electrophysiology in Xenopus oocytes, wild type
α1β3 GABAARs = biological target: T2, α1β3 GABAARs (Homo sapiens, UniProt P14867+P28472); assay: Modulation of [3H]muscimol binding, α1β3 receptors
T2 sequence (P14867 28-456): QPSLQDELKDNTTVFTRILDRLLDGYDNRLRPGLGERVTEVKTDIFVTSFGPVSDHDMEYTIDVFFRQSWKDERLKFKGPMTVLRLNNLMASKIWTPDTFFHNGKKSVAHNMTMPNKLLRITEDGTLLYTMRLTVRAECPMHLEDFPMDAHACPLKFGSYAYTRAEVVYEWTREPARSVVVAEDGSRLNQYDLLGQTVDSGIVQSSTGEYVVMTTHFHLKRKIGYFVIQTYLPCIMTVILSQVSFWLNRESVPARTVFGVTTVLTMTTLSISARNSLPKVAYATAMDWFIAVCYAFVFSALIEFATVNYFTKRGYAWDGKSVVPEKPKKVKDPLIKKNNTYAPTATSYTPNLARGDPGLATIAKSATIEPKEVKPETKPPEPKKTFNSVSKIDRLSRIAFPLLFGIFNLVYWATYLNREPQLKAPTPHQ
T2 sequence (P28472 26-473): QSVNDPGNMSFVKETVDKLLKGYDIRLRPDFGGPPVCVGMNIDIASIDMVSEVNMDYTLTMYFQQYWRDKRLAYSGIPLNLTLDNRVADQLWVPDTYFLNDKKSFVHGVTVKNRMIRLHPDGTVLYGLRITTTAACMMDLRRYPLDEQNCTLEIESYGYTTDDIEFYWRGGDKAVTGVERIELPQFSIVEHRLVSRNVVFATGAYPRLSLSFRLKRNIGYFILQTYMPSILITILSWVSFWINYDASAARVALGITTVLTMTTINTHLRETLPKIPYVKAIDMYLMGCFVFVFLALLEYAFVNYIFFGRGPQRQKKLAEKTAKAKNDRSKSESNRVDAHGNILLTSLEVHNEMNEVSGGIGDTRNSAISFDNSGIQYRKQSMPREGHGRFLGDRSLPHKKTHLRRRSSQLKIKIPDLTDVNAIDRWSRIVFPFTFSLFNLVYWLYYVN

α1β3γ2L GABAARs [5] = biological target: T1, α1β3γ2L GABAARs; assay: [3H]pTFD-di-iPr-BnOH photolabeling and its inhibition; format: binding; conditions: with GABA; for inhibition of [3H]pTFD-di-iPr-BnOH photoincorporation into the β subunit: 300 μM etomidate, 30 μM allopregnanolone, fluorography
α1β3γ2L GABAARs [6] = biological target: T1, α1β3γ2L GABAARs; assay: Inhibition of [3H]R-mTFD-MPAB photolabeling; format: binding
α1(S270I)β3γ2L receptors = α1(S270I)β3γ2L receptors (Homo sapiens, UniProt P14867+P18507+P28472, S297I); assay: Oocyte electrophysiology, enhancement of low-GABA currents, α1 S270I mutant; format: cell-based; conditions: for enhancement of GABA currents compared to wild type: 5 μM etomidate, 8 μM R-mTFD-MPAB
α1(S270I)β3γ2L receptors, sequence (P14867 28-456 S297I, one chain of several): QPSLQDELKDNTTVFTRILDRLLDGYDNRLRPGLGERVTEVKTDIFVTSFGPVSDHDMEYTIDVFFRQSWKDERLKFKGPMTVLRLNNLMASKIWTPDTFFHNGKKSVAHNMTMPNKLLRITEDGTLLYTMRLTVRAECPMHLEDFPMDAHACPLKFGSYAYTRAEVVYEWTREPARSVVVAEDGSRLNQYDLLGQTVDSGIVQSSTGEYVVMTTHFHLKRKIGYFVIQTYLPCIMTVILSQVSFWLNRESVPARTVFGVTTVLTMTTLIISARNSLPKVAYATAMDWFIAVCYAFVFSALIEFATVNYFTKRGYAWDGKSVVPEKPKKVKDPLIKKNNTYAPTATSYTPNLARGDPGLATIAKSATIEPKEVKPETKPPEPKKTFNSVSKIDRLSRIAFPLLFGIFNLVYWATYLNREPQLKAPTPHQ
α1(S270I)β3γ2L receptors, sequence (P18507 40-475, one chain of several): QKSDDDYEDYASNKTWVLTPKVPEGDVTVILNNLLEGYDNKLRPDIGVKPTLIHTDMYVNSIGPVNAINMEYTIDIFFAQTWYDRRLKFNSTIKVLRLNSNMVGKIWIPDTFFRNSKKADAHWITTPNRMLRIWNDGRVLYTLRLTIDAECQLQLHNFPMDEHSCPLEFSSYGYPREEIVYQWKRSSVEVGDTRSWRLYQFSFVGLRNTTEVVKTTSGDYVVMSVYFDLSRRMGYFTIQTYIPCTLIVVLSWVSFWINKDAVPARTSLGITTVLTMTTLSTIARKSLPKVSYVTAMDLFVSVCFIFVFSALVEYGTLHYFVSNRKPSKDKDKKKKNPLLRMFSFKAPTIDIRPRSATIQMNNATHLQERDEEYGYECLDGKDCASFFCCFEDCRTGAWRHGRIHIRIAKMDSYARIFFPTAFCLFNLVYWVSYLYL

α1β3γ2L GABAARs [7] = biological target: T1, α1β3γ2L GABAARs; assay: Inhibition of [3H]azietomidate photolabeling; format: binding; conditions: in the presence of 300 μM etomidate
Xenopus laevis tadpoles = assay: Loss of righting reflexes; format: in vivo

T1 sequence (P18507 40-475, one chain of several): as above

In the case of `CC(C)c1cc(Cl)cc(C(C)C)c1O` [4-Cl-propofol], the “selectivity favoring the etomidate site” value (α1β3γ2 GABAAR [1]) is listed as 4 fold.
In the case of `CC(C)c1cc(C(=O)c2ccccc2)cc(C(C)C)c1O` [4-benzoylpropofol], the “high affinity R-mTFD-MPAB site favored over the etomidate site” value (α1β3γ2 GABAAR [1]) is given as 200 fold and the “low affinity R-mTFD-MPAB site favored over the etomidate sites” value (α1β3γ2 GABAAR [1]) is given as 3 fold.
In the case of `OCc1ccccc1` [BnOH, benzyl alcohol], the “LoRR at lower concentrations than modulation of [3H]muscimol binding” value (α1β3γ2L GABAARs [2]; tadpole LoRR vs HEK cell membranes) is reported as about 20 times and the “modulation of [3H]muscimol binding” value (α1β3γ2L GABAARs [2]; up to 50 mM) is reported as “no modulation”.
In the case of `CC(C)c1cccc(C(C)C)c1CO` [Di-iPr-BnOH, (2,6-diisopropylphenyl)methanol], the “selectivity favoring the etomidate site over R-mTFD-MPAB site” value (α1β3γ2 GABAAR [3]) is reported as 2–3 fold.
With `NCCCC(=O)O` [GABA, γ-aminobutyric acid] the elicited currents (α1β3γ2L GABAARs [4]; 1 mM GABA) was 3.2 ± 1.5 μA and the “Hill coefficient nH of GABA concentration-response curve” value (α1β3γ2L GABAARs [4]; GABA alone) was 1.0 ± 0.1.
In the case of `CC(=O)c1cc(C(C)C)c(O)c(C(C)C)c1` [Me–CO–], the “selectivity favoring the R-mTFD-MPAB sites” value (α1β3γ2 GABAAR [1]) is given as 1.5 fold.
In the case of `CC(C)c1cc(C(O)c2ccccc2)cc(C(C)C)c1O` (centres unmarked) [Ph–C(OH)–], the “selectivity favoring the R-mTFD-MPAB sites” value (α1β3γ2 GABAAR [1]) is given as 5.3 fold.
For `CC(C)c1cccc(C(C)C)c1O` [Propofol], the EC50 (α1β3 GABAARs) is given as 7 ± 1.7 µM, the “extent of inhibition of [3H]pTFD-di-iPr-BnOH photolabeling” value (α1β3γ2L GABAARs [5]; 300 μM, β subunit) is given as “to the same extent as the background labeling” and the “selectivity favoring the etomidate site” value (α1β3γ2 GABAAR [1]) is given as 5.5 fold.
With `C=CCC1(c2cccc(C3(C(F)(F)F)N=N3)c2)C(=O)NC(=O)N(C)C1=O` (centres unmarked) [R–mTFD-MPAB, (5-allyl-1-methyl-5-(3-(3-(trifluoromethyl)-3H-diazirin-3-yl)phenyl)pyrimidine-2,4,6(1H,3H,5H)-trione)] the “non-specific [3H]R-mTFD-MPAB photolabeling (Bns)” value (α1β3γ2L GABAARs [6]; in the presence of 60 μM R-mTFD-MPAB) was 13 ± 4% and the “enhancement of GABA currents compared to wild type” value (α1(S270I)β3γ2L receptors) was “significantly reduced”.
With `CC(=O)[C@H]1CC[C@H]2[C@@H]3CC[C@H]4C[C@H](O)CC[C@]4(C)[C@H]3CC[C@]12C` [allopregnanolone] the “inhibition of [3H]pTFD-di-iPr-BnOH photoincorporation into the β subunit” value (α1β3γ2L GABAARs [5]) was “little inhibition of photolabeling”.
In the case of `CCOC(=O)c1cncn1[C@H](C)c1ccccc1` [etomidate], the “non-specific [3H]azietomidate photolabeling (Bns)” value (α1β3γ2L GABAARs [7]) is reported as 13 ± 3%, the “inhibition of [3H]pTFD-di-iPr-BnOH photoincorporation into the β subunit” value (α1β3γ2L GABAARs [5]) is reported as “little inhibition of photolabeling” and the “enhancement of GABA currents compared to wild type” value (α1(S270I)β3γ2L receptors) is reported as “comparable to that in wild-type”.
In the case of `CC(C)c1cc(C2(C(F)(F)F)N=N2)cc(C(C)C)c1CO` [pTFD-di-iPr-BnOH, (2,6-diisopropyl-4-(3-(trifluoromethyl)-3H-diazirin-3-yl)phenyl)methanol], the IC50 (α1β3γ2L GABAARs [6]) is reported as 73 ± 10 µM, the “fraction of tadpoles that did not recover from anesthesia” value (Xenopus laevis tadpoles; at 2 μM) is reported as 4/7 and the “fraction of tadpoles that did not recover from anesthesia” value (Xenopus laevis tadpoles; at 3 μM) is reported as 6/9. The “fraction of tadpoles that did not recover from anesthesia” value (Xenopus laevis tadpoles; at 10 μM) was 7/10, the “increase in LoRR potency” value (Xenopus laevis tadpoles; relative to Di-iPr-BnOH) was 6 fold and the “reduction of enhancement compared to wild type” value (α1(S270I)β3γ2L receptors; 10 μM pTFD-di-iPr-BnOH) was “more than 50%”.
In the case of `CC(C)c1cc(C(C)(C)C)cc(C(C)C)c1O` [t-Bu–], the “selectivity favoring the R-mTFD-MPAB sites” value (α1β3γ2 GABAAR [1]) is given as 8 fold.
